Paper PMC6792352, “Limited Chemical Structural Diversity Found to Modulate Thyroid Hormone Receptor in the Tox21 Chemical Library” (Environmental Health Perspectives, 2019)
Counter-ions that a name gives are not always drawn. Positions of bridges follow the written chain, without caps; N, C: chain ends. Residues, ends and D or L forms follow the SMILES beside them.

Experiment: in vitro
Conditions: rat, gh3-tre-luc cells

Row | SMILES | CC50 at 24 h (AC50 (uM) modified / 1000) | also measured
1 | CCN(CC#N)c1cccc(C)c1 [2-(Ethyl(3-methylphenyl)amino)acetonitrile] | > 90 µM | –
2 | COc1cc2nc(N(C)CCCNC(=O)C3CCCO3)nc(N)c2cc1OC (centres unmarked) [Alfuzosin hydrochloride] | > 20 µM | –
3 | CCCCCCOC(=O)CCC [Hexyl butyrate] | > 90 µM | –
4 | COP(=S)(OC)Oc1cc(Cl)c(I)cc1Cl [Iodenphos] | – | CC50 at 24 h (AC50 (uM) modified / 1000, Tox21_110001=Tox21_300910, viability, 1 nM T3 present, 24 h): > 90 µM
5 | CCCC[N+]1(C)[C@@H]2CC(OC(=O)[C@H](CO)c3ccccc3)C[C@H]1[C@@H]1O[C@@H]12 (some centres unmarked) [Butylscopolammonium bromide] | > 50 µM | –
6 | CCOP(=O)(OCC)O/C(=C\Cl)c1ccc(Cl)cc1Cl [Chlorfenvinphos] | – | CC50 at 24 h (AC50 (uM) modified / 1000, Tox21_110001=Tox21_112069, viability, 1 nM T3 present, 24 h): > 50 µM; CC50 at 24 h (AC50 (uM) modified / 1000, Tox21_110001=Tox21_301573, viability, 1 nM T3 present, 24 h): > 90 µM
7 | N[C@@H](C(=O)N[C@@H]1C(=O)N2C(C(=O)O)=C(Cl)CS[C@H]12)c1ccccc1 [Cefaclor] | > 50 µM | –
8 | CC(=O)NC1(c2cccc(F)c2)CCN(CC[C@@]2(c3ccc(Cl)c(Cl)c3)CN(c3ccccc3)C(=O)CO2)CC1 [SAR102779] | 6.31 µM | –
9 | N[C@@H](CS)C(=O)O [l-Cysteine hydrochloride] | > 90 µM | –
10 | CN1C(=O)/C(=N\NC(N)=S)c2ccccc21 [Methisazone] | 34.2 µM | –
11 | CCCCCCCCC [Nonane] | > 90 µM | –
12 | COc1nccnc1NS(=O)(=O)c1ccc(N)cc1 [Sulfalene] | > 50 µM | –
13 | CCCN [Propylammonium nitrate] | > 90 µM | –
14 | CC(C(=O)O)c1ccc2c(c1)CC(=O)c1ccccc1S2 (centres unmarked) [Zaltoprofen] | > 50 µM | –
15 | CNC(=O)Nc1ccc(Cl)c(Cl)c1 [N-(3,4-Dichlorophenyl)-N'-methylurea] | > 90 µM | –
16 | CNC(=O)N(c1ccccc1)c1ccccc1 [N'-Methyl-N,N-diphenylurea] | > 90 µM | –
17 | Cc1cc(C(=O)O)ccc1[N+](=O)[O-] [3-Methyl-4-nitrobenzoic acid] | > 90 µM | –
18 | CC(C)(O)c1ccc(CNC(=O)c2cccnc2Oc2ccc3nonc3c2)cc1 [CP-612372] | > 90 µM | –
19 | CCN(CCO)c1cccc(C)c1 [2-(N-Ethyl-m-toluidino)ethanol] | > 90 µM | –
20 | ClCCOCCOCCCl [1,2-Bis(2-chloroethoxy)ethane] | > 90 µM | –
21 | N#CCCOCCOCCC#N [3,3'-(Ethylenedioxy)dipropiononitrile] | > 90 µM | –
22 | N#Cc1ccc(CC(=O)c2cccc(C(F)(F)F)c2)cc1 [4-{2-Oxo-2-[3-(trifluoromethyl)phenyl]ethyl}benzonitrile] | > 90 µM | –
23 | CC1=C(/C=C/C(C)=C/C=C/C(C)=C/C=C/C=C(C)/C=C/C=C(C)/C=C/C2=C(C)CCCC2(C)C)C(C)(C)CCC1 [beta-Carotene] | > 50 µM | –
24 | C=C1C[C@H]2[C@@H]3CCC4=CC(=O)C=C[C@]4(C)[C@@]3(F)[C@@H](O)C[C@]2(C)[C@@]1(O)C(=O)COC(C)=O [Fluprednidene acetate] | > 50 µM | –
25 | CSCC[C@H](NC(=O)[C@H](Cc1c[nH]c2ccccc12)NC(=O)CCNC(=O)OC(C)(C)C)C(=O)N[C@@H](CC(=O)O)C(=O)N[C@@H](Cc1ccccc1)C(N)=O [Pentagastrin] | > 50 µM | –

Row | SMILES | CC50 at 24 h (AC50 (uM) modified / 1000) | also measured
26 | CC(=O)O[C@H]1C[C@H](O[C@H]2[C@@H](O)C[C@H](O[C@H]3[C@@H](O)C[C@H](O[C@H]4CC[C@@]5(C)[C@H](CC[C@@H]6[C@@H]5C[C@@H](O)[C@]5(C)[C@@H](C7=CC(=O)OC7)CC[C@]65O)C4)O[C@@H]3C)O[C@@H]2C)O[C@H](C)[C@H]1O[C@@H]1O[C@H](CO)[C@@H](O)[C@H](O)[C@H]1O [Lanatoside C] | > 50 µM | –
27 | NS(=O)(=O)c1cc2c(cc1Cl)NC(Cc1ccccc1)NS2(=O)=O (centres unmarked) [Benzylhydrochlorothiazide] | > 50 µM | –
28 | COc1ccc(CN(CCN(C)C)c2ncccn2)cc1 [Thonzylamine hydrochloride] | > 50 µM | –
29 | CC(=O)OCC(CCn1cnc2cnc(N)nc21)COC(C)=O [Famciclovir] | > 50 µM | –
30 | O=P(O)(O)OC[C@H](O)CO [sn-Glycerol 3-phosphate bis(cyclohexylammonium)] | > 50 µM | –
31 | C[C@]12CCC(=O)C=C1CC[C@@H]1[C@@H]2CC[C@@]2(C)[C@H]1CC[C@]2(C)O [17-Methyltestosterone] | – | CC50 at 24 h (AC50 (uM) modified / 1000, Tox21_110001=Tox21_113161, viability, 1 nM T3 present, 24 h): > 50 µM; CC50 at 24 h (AC50 (uM) modified / 1000, Tox21_110001=Tox21_400058, viability, 1 nM T3 present, 24 h): > 90 µM
32 | CCN(CC)CCc1nc(-c2ccccc2)no1 [Oxalamine citrate] | > 20 µM | –
33 | CCOc1cc(-c2nccc3cc(OC)c(OC)cc23)cc(OCC)c1OCC [Octaverine] | 28.2 µM | –
34 | NCCCC[C@H](NC(=O)[C@@H]1CCCN1C(=O)[C@@H]1CSSC[C@H](N)C(=O)N[C@@H](Cc2ccccc2)C(=O)N[C@@H](Cc2ccccc2)C(=O)N[C@@H](CCC(N)=O)C(=O)N[C@@H](CC(N)=O)C(=O)N1)C(=O)NCC(N)=O [Felypressin] (H-CFFQNCPKG-NH2; disulfide 1-6) | > 50 µM | –
35 | O=C1CCCC(=O)O1 [Glutaric anhydride] | > 90 µM | –
36 | CC(C)(C)CC(C)(C)N [2,4,4-Trimethyl-2-pentanamine] | > 90 µM | –
37 | COc1cc(O)c(C(=O)c2ccccc2)cc1S(=O)(=O)O [Sulisobenzone] | > 90 µM | –
38 | CN(C)c1nc(=O)n(C2CCCCC2)c(=O)n1C [Hexazinone] | > 100 µM | –
39 | c1ccc2c(c1)CCCC2C1=NCCN1 (centres unmarked) [Tetrahydrozoline hydrochloride] | > 50 µM | –
40 | CCCCCCCCCCCCCCNCCO [Myralact] | > 50 µM | –
41 | CC(COC(C)(C)C)OCCCO (centres unmarked) [Di(propylene glycol) tert-butyl ether] | > 90 µM | –
42 | O=C(O)C(Cl)(Cl)Cl [Trichloroacetic acid] | > 90 µM | –
43 | O=C(O)c1nn(Cc2ccc(Cl)cc2Cl)c2ccccc12 [Lonidamine] | > 90 µM | –
44 | COc1nc(C)nc(N)n1 [2-Methyl-4-amino-6-methoxy-s-triazine] | > 90 µM | –
45 | N=C(N)c1ccccc1 [Benzenecarboximidamide, monohydrochloride] | > 90 µM | –
46 | CC(C)(O)c1ccccc1CC[C@@H](SCC1(CC(=O)O)CC1)c1cccc(/C=C/c2ccc3ccc(Cl)cc3n2)c1 [Montelukast sodium] | 35.1 µM | –
47 | O=C=Nc1ccc(Cc2ccc(N=C=O)cc2)cc1 [4,4'-Diphenylmethane diisocyanate] | > 90 µM | –
48 | CCCCCCCCCCCC[N+](C)(C)C [Dodecyltrimethylammonium chloride] | 15.8 µM | –
49 | O=C1CCCN1C1CCCCC1 [1-Cyclohexylpyrrolidin-2-one] | > 90 µM | –
50 | CC(C)(O/N=C(\C(=O)N[C@@H]1C(=O)N2C(C(=O)[O-])=C(C[n+]3ccccc3)CS[C@H]12)c1csc(N)n1)C(=O)O [Ceftazidime pentahydrate] | > 20 µM | –

Row | SMILES | CC50 at 24 h (AC50 (uM) modified / 1000) | also measured
51 | CC(O)C1CCCCC1 (centres unmarked) [1-Cyclohexylethanol] | > 90 µM | –
52 | Cc1occc1C(=O)Nc1ccc(C(=O)N2CCC(F)(F)/C(=C\C(=O)N3CCC(N4CCCCC4)CC3)c3ccccc32)cc1 [YM218] | 11.8 µM | –
53 | CCC(N)Cc1c[nH]c2ccccc12 (centres unmarked) [Etryptamine acetate] | – | CC50 at 24 h (AC50 (uM) modified / 1000, Tox21_110001=Tox21_112820, viability, 1 nM T3 present, 24 h): > 100 µM
54 | CCOC(=O)C(C)(C)C [Ethylpivalate] | > 90 µM | –
55 | COc1cc(/C=C/C(=O)N2CCN(CC(=O)N3CCCC3)CC2)cc(OC)c1OC [Cinepazide maleate] | > 50 µM | –
56 | CCCCNS(=O)(=O)c1ccccc1 [N-Butylbenzenesulfonamide] | > 90 µM | –
57 | COc1cc(C(C)(C)C)c(O)c(C(C)(C)C)c1 [2,6-Di-tert-butyl-4-methoxyphenol] | 48.1 µM | –
58 | CC1(C)CC/C(=C\c2ccc(Cl)cc2)C1(O)Cn1cncn1 (centres unmarked) [Triticonazole] | > 90 µM | –
59 | CC(C)C(C)C [2,3-Dimethylbutane] | > 90 µM | –
60 | Cc1ccc(O)c2ncccc12 [Tiliquinol] | 4.67 µM | –
61 | O=C(Oc1ccccc1)c1ccc2ccccc2c1O [Phenyl 1-hydroxy-2-naphthoate] | > 90 µM | –
62 | Clc1ccc(C(OCCN2CCCCC2)c2ccccc2)cc1 (centres unmarked) [Cloperastine hydrochloride] | 9.53 µM | –
63 | CN(C)CCCNCCCN(C)C [N'-[3-(Dimethylamino)propyl]-N,N-dimethylpropane-1,3-diamine] | > 90 µM | –
64 | CC(CN(C)C)CN1c2ccccc2Sc2ccccc21 (centres unmarked) [Trimeprazine tartrate] | 4.36 µM | –
65 | CCCC(=O)OCCC(C)C [Isopentyl butyrate] | > 90 µM | –
66 | CC(C)(C)C(=O)OCOC(=O)[C@@H]1N2C(=O)[C@@H](N=CN3CCCCCC3)[C@H]2SC1(C)C [Pivmecillinam hydrochloride] | > 20 µM | –
67 | CCCCCCCCCCCCCC(=O)O [Tetradecanoic acid] | > 90 µM | –
68 | CC1(C)OC[C@@H](COC(=O)CCc2ccc(OC[C@@H](O)CNCCNC(=O)N3CCOCC3)cc2)O1 [Landiolol hydrochloride] | > 50 µM | –
69 | CC(=O)c1ccc[nH]1 [2-Acetylpyrrole] | > 90 µM | –
70 | CCCCC(CC)COC(=O)c1ccc(C(=O)OCC(CC)CCCC)c(C(=O)OCC(CC)CCCC)c1 (centres unmarked) [Tris(2-ethylhexyl) trimellitate] | > 90 µM | –
71 | O=C(C[S+]([O-])C(c1ccccc1)c1ccccc1)NO (centres unmarked) [Adrafinil] | – | CC50 at 24 h (AC50 (uM) modified / 1000, Tox21_110001=Tox21_112258, viability, 1 nM T3 present, 24 h): > 50 µM
72 | CC(=O)CCC(C)C [5-Methyl-2-hexanone] | > 90 µM | –
73 | CC(C=O)Cc1ccc2c(c1)OCO2 (centres unmarked) | – | CC50 at 24 h (AC50 (uM) modified / 1000, Tox21_110001=Tox21_301642, viability, 1 nM T3 present, 24 h): > 90 µM
74 | CCOc1cccc(N)c1 [3-Ethoxyaniline] | > 90 µM | –
75 | O=C(c1ccccc1)c1ccccc1O [2-Hydroxybenzophenone] | > 90 µM | –
